Where two headings read alike, the source gives them in different places. Positions of bridges follow the written chain, without caps; N, C: chain ends. Non-standard residues stand in square brackets, D forms with d. Residues, ends and D or L forms follow the SMILES beside them. ξ: configuration not given here. Bta = N[C@@H](Cc1csc2ccccc12)C(=O)O; Hyp = O=C(O)[C@@H]1C[C@@H](O)CN1; NMeNle = CCCC[C@H](NC)C(=O)O; NMeM = CN[C@@H](CCSC)C(=O)O; NMeA = CN[C@@H](C)C(=O)O; Dab = NCC[C@H](N)C(=O)O; Dap = NC[C@H](N)C(=O)O; ξP = O=C(O)C1CCCN1; ξC = NC(CS)C(=O)O; Sar = CNCC(=O)O
Columns and labels:
Human PD-L1/PD-1 = molecular target: T1, Human PD-L1/PD-1 (Homo sapiens, UniProt Q9NZQ7); experiment: HTRF PD-1-Ig/PD-L1-His binding assay (human PD-L1)
T1 construct: made in house; host or cells: HEK293T
In short: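 Soluble Fc-fused PD-1 and His-tagged PD-L1 (truncated before the transmembrane region) were combined in dPBS with 0.1% (w/v) BSA and 0.05% (v/v) Tween-20. Binding was read by HTRF using europium cryptate anti-Ig antibody (1 nM final) and APC anti-His antibody (20 nM final).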

CMV-specific T cells [1] = settings: read-out: EC50, IFNγ secretion by CMV-specific T cells; FIG. 10A-C
CMV-specific T cells [2] = molecular target: CMV-specific T cells (Homo sapiens, UniProt Q9NZQ7); experiment: CMV-specific T cell function assay (IFNγ secretion, ELISA); format: cell-based
Procedure: CMV-specific T Cell Function Assay. […] AIM-V medium (Life Technologies, Grand Island, N.Y.) supplemented with 10% heat-inactivated fetal bovine serum (FBS, Sigma, St Louis, Mo.) was used at a total volume of 200 µL/well in triplicate. The cells were cultured for 4 days at 37° C., 5% CO2 at which time culture supernatant was harvested for determination of secreted IFNγ by ELISA (OptEIA hIFNγ ELISA Kit, BD Biosciences, San Jose, Calif.).

[3] = molecular target: T2, LK35.2-hPD-L1 cells / PE-labeled PD-1-Ig (Homo sapiens, UniProt Q9NZQ7); experiment: LK35.2-hPD-L1 cell binding high-content screening assay; format: cell-based; settings: cell binding assay, cell line not given
T2 construct: expressed in transfected cells; host or cells: LK35.2 mouse B cell line
In short: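 Binding of PE-conjugated human PD-1-Ig (1 nM final) to human PD-L1 stably expressed on a mouse B-cell line (LK35.2) was measured by high-content imaging after washes. Compound and labeled PD-1-Ig were co-incubated 1 h at 37 °C with cells in RPMI/10% FCS.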

[4] = Table 6, read-out: HTRF Human PD-L1/PD-1 Binding Assay IC50
[5] = value given instead of cluster, read-out: HTRF IC50 value
[6] = value given instead of cluster, read-out: CMV Recall EC50 value
[7] = value given instead of cluster, read-out: CBA IC50 value
[8] = numeric value, read-out: HTRF IC50 values
[9] = numeric value, read-out: CMV Recall EC50 values
[10] = numeric value, read-out: CBA IC50 values

T1 sequence (Q9NZQ7 with tags, fused parts or gaps): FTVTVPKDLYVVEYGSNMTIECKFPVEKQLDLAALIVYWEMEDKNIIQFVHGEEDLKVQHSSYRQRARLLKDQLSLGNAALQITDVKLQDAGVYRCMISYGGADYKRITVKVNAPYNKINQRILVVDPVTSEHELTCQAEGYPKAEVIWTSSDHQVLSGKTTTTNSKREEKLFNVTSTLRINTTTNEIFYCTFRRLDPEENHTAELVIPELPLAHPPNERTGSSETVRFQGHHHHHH
Sequence of CMV-specific T cells (Homo sapiens, UniProt Q9NZQ7) (Q9NZQ7 19-290): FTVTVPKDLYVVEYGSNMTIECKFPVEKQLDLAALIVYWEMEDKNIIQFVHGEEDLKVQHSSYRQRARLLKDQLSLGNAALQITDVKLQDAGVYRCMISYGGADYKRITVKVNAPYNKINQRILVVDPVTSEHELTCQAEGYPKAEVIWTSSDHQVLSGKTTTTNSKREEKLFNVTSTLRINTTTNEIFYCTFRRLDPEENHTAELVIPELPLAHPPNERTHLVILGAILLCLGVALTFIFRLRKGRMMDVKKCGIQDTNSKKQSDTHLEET
T2 sequence (Q9NZQ7 19-290): as above

Row | IC50 (Human PD-L1/PD-1; [5]) | EC50 (CMV-specific T cells [2]; [6]) | IC50 [3, 7] | IC50 (Human PD-L1/PD-1; [8]) | EC50 (CMV-specific T cells [2]; [9]) | IC50 [3, 10] | Compound | other results
1 | – | – | – | – | – | – | CCCC[C@H]1C(=O)N(C)[C@@H](CCCC)C(=O)N[C@@H](CCCNC(=N)N)C(=O)N[C@H](C(=O)NCC(N)=O)CSCC(=O)N[C@@H](Cc2ccccc2)C(=O)N(C)[C@@H](C)C(=O)N[C@@H](CC(N)=O)C(=O)N2CCCC2C(=O)N[C@@H](Cc2cnc[nH]2)C(=O)N[C@@H](CC(C)C)C(=O)N(C)CC(=O)N[C@@H](Cc2c[nH]c3ccccc23)C(=O)N[C@@H](CO)C(=O)N[C@@H](Cc2c[nH]c3ccccc23)C(=O)N1C (stereo partly drawn) [Compound No. 1] ({CH2CO}-F[NMeA]N[ξP]HL[Sar]WSW[NMeNle][NMeNle]RCG-NH2; thioether N-14) | IC50 (Human PD-L1/PD-1; [4]): 9 nM; IC50 (Human PD-L1/PD-1; Table 8, Compound No. 1 variant macrocyclic peptides, read-out: HTRF Human PD-L1/PD-1 Binding Assay IC50): 9 nM; EC50 (CMV-specific T cells [1]): 400 nM
2 | – | – | – | – | – | – | CC[C@H](C)[C@@H]1NC(=O)[C@H](CC(C)C)NC(=O)[C@H](Cc2ccccc2)NC(=O)CSC[C@@H](C(=O)NCC(N)=O)NC(=O)[C@H](CCCNC(=N)N)NC(=O)[C@H](Cc2ccccc2)NC(=O)[C@H](C(C)C)NC(=O)[C@H](CCCNC(=N)N)NC(=O)[C@H](CC(=O)O)NC(=O)[C@H](CCCNC(=N)N)NC(=O)[C@H]([C@@H](C)CC)NC(=O)[C@H](C(C)C)NC1=O [Compound No. 99] (HELM PEPTIDE1{[O=C(C[*:3])[*:2]].F.L.I.V.I.R.D.R.V.F.R.C.G.[am]}$PEPTIDE1,PEPTIDE1,1:R3-13:R3$$$V2.0) | IC50 (Human PD-L1/PD-1; [4]): 153 nM; IC50 (Human PD-L1/PD-1; Table 7, Compound No. 99 variant macrocyclic peptides, read-out: HTRF Human PD-L1/PD-1 Binding Assay IC50): 153 nM; EC50 (CMV-specific T cells [1]): > 10000 nM
3 | 5.77 nM | 3.27 nM | 1.81 nM | – | – | – | CCCC[C@H]1C(=O)N(C)[C@@H](CCCC)C(=O)N[C@@H](CC(C)C)C(=O)N[C@H](C(=O)NCC(N)=O)CSCC(=O)N[C@@H](Cc2ccc(O)cc2)C(=O)N(C)[C@@H](C)C(=O)N[C@@H](CC(N)=O)C(=O)N2CCC[C@H]2C(=O)N[C@@H](CN)C(=O)N[C@@H](CCC(=O)O)C(=O)N2C[C@H](O)C[C@H]2C(=O)N[C@@H](Cc2c[nH]c3ccccc23)C(=O)N[C@@H](CCN)C(=O)N[C@@H](Cc2c[nH]c3ccccc23)C(=O)N1C [Example 5067] ({CH2CO}-Y[NMeA]NP[Dap]E[Hyp]W[Dab]W[NMeNle][NMeNle]LCG-NH2; thioether N-14) | –
4 | 10.5 nM | 14 nM | 1.01 nM | – | – | – | CCCC[C@H]1C(=O)N(C)[C@@H](CCCC)C(=O)N[C@@H](CC(C)C)C(=O)N[C@H](C(=O)NCC(N)=O)CSCC(=O)N[C@@H](Cc2ccc(O)cc2)C(=O)N(C)[C@@H](C)C(=O)N[C@@H](CC(N)=O)C(=O)N2CCC[C@H]2C(=O)N[C@@H](CN)C(=O)N[C@@H](CCC(=O)O)C(=O)N2C[C@H](O)C[C@H]2C(=O)N[C@@H](Cc2c[nH]c3ccccc23)C(=O)N[C@@H](CO)C(=O)N[C@@H](Cc2c[nH]c3ccccc23)C(=O)N1C [Example 5071] ({CH2CO}-Y[NMeA]NP[Dap]E[Hyp]WSW[NMeNle][NMeNle]LCG-NH2; thioether N-14) | –
5 | 6.76 nM | 100 nM | 3.14 nM | – | – | – | CCCC[C@H]1C(=O)N(C)[C@@H](CCCC)C(=O)N[C@@H](CCN)C(=O)N[C@H](C(=O)NCC(N)=O)CSCC(=O)N[C@@H](Cc2ccc(O)cc2)C(=O)N(C)[C@@H](C)C(=O)N[C@@H](CCN)C(=O)N2CCC[C@H]2C(=O)N[C@@H](Cc2c[nH]cn2)C(=O)N[C@@H](CCC(=O)O)C(=O)N2C[C@H](O)C[C@H]2C(=O)N[C@@H](Cc2c[nH]c3ccccc23)C(=O)N[C@@H](CO)C(=O)N[C@@H](Cc2c[nH]c3ccccc23)C(=O)N1C [Example 5093] ({CH2CO}-Y[NMeA][Dab]PHE[Hyp]WSW[NMeNle][NMeNle][Dab]CG-NH2; thioether N-14) | –
6 | 5.33 nM | 103 nM | 6.75 nM | – | – | – | CCCC[C@H]1C(=O)N(C)[C@@H](CCCC)C(=O)N[C@@H](CO)C(=O)N[C@H](C(=O)NCC(N)=O)CSCC(=O)N[C@@H](Cc2ccc(O)cc2)C(=O)N(C)[C@@H](C)C(=O)N[C@@H](CC(=O)O)C(=O)N2CCC[C@H]2C(=O)N[C@@H](CO)C(=O)N[C@@H](CO)C(=O)N2C[C@H](O)C[C@H]2C(=O)N[C@@H](Cc2c[nH]c3ccccc23)C(=O)N[C@@H](CO)C(=O)N[C@@H](Cc2c[nH]c3ccccc23)C(=O)N1C [Example 5117] ({CH2CO}-Y[NMeA]DPSS[Hyp]WSW[NMeNle][NMeNle]SCG-NH2; thioether N-14) | –
7 | 4.97 nM | 5.75 nM | 0.763 nM | – | – | – | CCCC[C@H]1C(=O)N([13CH3])[C@@H](CCCC)C(=O)N[C@@H](CCCNC(=N)N)C(=O)N[C@H](C(=O)NCC(N)=O)CSCC(=O)N[C@@H](Cc2ccc(O)cc2)C(=O)N([13CH3])[C@@H](C)C(=O)N[C@@H](CC(N)=O)C(=O)N2CCC[C@H]2C(=O)N[C@@H](Cc2cnc[nH]2)C(=O)N[C@@H](CC(C)C)C(=O)N2CCC[C@H]2C(=O)N[C@@H](Cc2c[nH]c3ccccc23)C(=O)N[C@@H](CO)C(=O)N[C@@H](Cc2csc3ccccc23)C(=O)N1[13CH3] [Example 6035] | –
8 | – | – | – | 3.47 nM | 34.4 nM | 0.948 nM | CCCC[C@H]1C(=O)N[C@@H](CCCNC(=N)N)C(=O)NC(C(=O)NCC(N)=O)CSCC(=O)N[C@@H](Cc2ccc(O)cc2)C(=O)N(C)[C@@H](C)C(=O)N[C@@H](CC(N)=O)C(=O)N2CCC[C@H]2C(=O)N[C@@H](Cc2cnc[nH]2)C(=O)N[C@@H](CC(C)C)C(=O)N2C[C@H](O)C[C@H]2C(=O)N[C@@H](Cc2c[nH]c3ccccc23)C(=O)N[C@@H](CO)C(=O)N[C@@H](Cc2c[nH]c3ccccc23)C(=O)N(C)[C@@H](CCSC)C(=O)N1C (stereo partly drawn) [Example 9026] | –
9 | – | – | – | 7.15 nM | 39.4 nM | 0.643 nM | CCCC[C@H]1C(=O)N(C)[C@@H](CCCC)C(=O)N[C@@H](CCCNC(=N)N)C(=O)NC(C(=O)N[C@@H](CO)C(N)=O)CSCC(=O)N[C@@H](Cc2ccc(O)cc2)C(=O)N(C)[C@@H](C)C(=O)N[C@@H](CC(N)=O)C(=O)N2CCC[C@H]2C(=O)N[C@@H](Cc2cnc[nH]2)C(=O)N[C@@H](CC(C)C)C(=O)N2CCC[C@H]2C(=O)N[C@@H](Cc2c[nH]c3ccccc23)C(=O)N[C@@H](CO)C(=O)N[C@@H](Cc2csc3ccccc23)C(=O)N1C (stereo partly drawn) [Example 9031] ({CH2CO}-Y[NMeA]NPHLPWS[Bta][NMeNle][NMeNle]R[ξC]S-NH2; thioether N-14) | –
10 | – | – | – | 14.9 nM | 112 nM | 19.5 nM | CCCC[C@H]1C(=O)N[C@@H](CCCNC(=N)N)C(=O)NC(C(=O)NCC(N)=O)CSCC(=O)N[C@@H](Cc2ccc(O)cc2)C(=O)N(C)[C@@H](C)C(=O)N[C@@H](CC(N)=O)C(=O)N2CCC[C@H]2C(=O)N[C@@H](Cc2cnc[nH]2)C(=O)N[C@@H](CC(C)C)C(=O)N2C[C@H](O)C[C@H]2C(=O)N[C@@H](Cc2c[nH]c3ccccc23)C(=O)N[C@@H](CO)C(=O)N[C@@H](Cc2c[nH]c3ccccc23)C(=O)N(C)[C@@H](C)C(=O)N1C (stereo partly drawn) [Example 9057] | –
11 | – | – | – | 0.385 nM | 249 nM | 2.05 nM | CCCC[C@H]1C(=O)N(C)[C@@H](CCCC)C(=O)N[C@@H](CCCNC(=N)N)C(=O)NC(C(=O)NCC(N)=O)CSCC(=O)N[C@@H](Cc2ccc(O)cc2)C(=O)N(C)[C@@H](C)C(=O)N[C@@H](CC(N)=O)C(=O)N2CCC[C@H]2C(=O)N[C@@H](Cc2cnc[nH]2)C(=O)N[C@@H](CO)C(=O)N2CCC[C@H]2C(=O)N[C@@H](Cc2c[nH]c3ccccc23)C(=O)N[C@@H](CO)C(=O)N[C@@H](Cc2csc3ccccc23)C(=O)N1C (stereo partly drawn) [Example 9068] ({CH2CO}-Y[NMeA]NPHSPWS[Bta][NMeNle][NMeNle]R[ξC]G-NH2; thioether N-14) | –
12 | – | – | – | 774 nM | 5.6 nM | 3.03 nM | CCCC[C@H]1C(=O)N[C@@H](CCCNC(=N)N)C(=O)NC(C(=O)NCC(N)=O)CSCC(=O)N[C@@H](Cc2ccc(O)cc2)C(=O)N(C)[C@@H](C)C(=O)N[C@@H](CC(N)=O)C(=O)N2CCC[C@H]2C(=O)N[C@@H](CN)C(=O)N[C@@H](CC(C)C)C(=O)N2C[C@H](O)C[C@H]2C(=O)N[C@@H](Cc2c[nH]c3ccccc23)C(=O)N[C@@H](CO)C(=O)N[C@@H](Cc2c[nH]c3ccccc23)C(=O)N(C)[C@@H](CCSC)C(=O)N1C (stereo partly drawn) [Example 9091] ({CH2CO}-Y[NMeA]NP[Dap]L[Hyp]WSW[NMeM][NMeNle]R[ξC]G-NH2; thioether N-14) | –
